According to patent US9611501B2, “Method and device for rapid detection of bacterial antibiotic resistance/susceptibility” (priority 2009, dated 2017):
≈ marks a conversion by molar mass, not a printed value.

Columns and labels:
Staphylococcus aureus = assay: Lysostaphin MIC quoted for the flow cell experiment; format: cell-based; conditions: strain not stated; quoted to justify 0.6 ng/mL lysostaphin
[1] = tested on: MW2 methicillin resistant cells; assay: 4-channel flow cell, Sytox Green fluorescence of immobilized cells; format: cell-based, Staphylococcus aureus; conditions: oxacillin 50 μg/mL or lysostaphin 0.7 ng/mL alone, flow rate 1 mL/min, 0.5 μM Sytox Green
Method: (§1) This 4-channel arrangement was used to test a single strain of bacteria in the presence or absence of chemical stress (e.g., lysostaphin). The flow rate used in the channels was 1 mL/min and 0.5 μM Sytox Green was used to stain damaged or dying cells.
(§2) In each experiment, bacteria in two channels were exposed to 0.7 ng/mL lysostaphin (lyso) in the presence or absence of the antibiotic oxacillin (oxa; 50 μg/mL). The four experimental groups are as follows: (i) control (no oxa; no lyso), (ii) lyso only; (iii) oxa only, and (iv) lyso and oxa together.

[2] = tested on: Sanger 476 methicillin sensitive cells; assay: as above; format: cell-based, Staphylococcus aureus; conditions: flow rate 1 mL/min, 0.5 μM Sytox Green
Method: as §1, §2

strain Sanger 476 = assay: Classical microdilution broth MIC of lysostaphin; format: cell-based, Staphylococcus aureus; conditions: MHB, 5×10^5 CFU/mL, overnight incubation at 37° C.
Source text: (§3) A classical microdilution broth method was used to determine the lysostaphin minimum inhibitory concentrations for strains MW2 and Sanger 476 (Jones, R. N., et al. Manual of clinical microbiology, A. Balows, J. W. J. Hausler, and H. J. Shadomy, Editors. 1985, American Society for Microbiology: Washington D.C. p. 972-977). Briefly, logarithmic-phase bacteria were cultivated in Mueller-Hinton cation-adjusted broth (MHB) and adjusted to a concentration of 1×10^6 CFU/mL. Sterile microtiter plates containing 100 μl of lysostaphin diluted in MHB were inoculated with 100 μl of the bacterial suspension to yield 5×10^5 CFU/mL. After overnight incubation at 37° C. overnight, the MIC for both strains was 0.06 μg/mL.

strain MW2 = assay: Classical microdilution broth MIC of lysostaphin; format: cell-based, Staphylococcus aureus; conditions: MHB, 5×10^5 CFU/mL, overnight incubation at 37° C.
Source text: as §3

[3] = tested on: MSSA (Sanger 476) and MRSA (MW2) strains; assay: Single-channel flow cell, immobilized cells under shear and lysostaphin stress with oxacillin, Sytox green staining; format: cell-based, Staphylococcus aureus; conditions: 10 μg/mL oxacillin, 0.6 ng/mL lysostaphin, ~4200 s^-1 shear rate for 15 mins after 40 min pretreatment with lysostaphin and shear; 0.5 μM Sytox green
Method: The Staphylococcus aureus (MRSA strain MW2 and MSSA strain Sanger 476) were grown to log phase in Mueller-Hinton broth with 2% sodium chloride (MH2) and then immobilized on epoxide slides, which is a non-specific method for immobilizing bacteria and can be used instead of the adhesin mechanism. To immobilize the bacteria, 100 μL of culture was placed on the epoxide slide (Super-epoxy II, Telechem International) and incubated at 37° C. for 45 min in a humid environment. The immobilized cells were briefly rinsed with water and Block-it buffer (Telechem International) to quench any remaining un-reacted epoxide bonds.
On two separate slides, MSSA (Sanger 476) and MRSA (MW2) strains were immobilized. The cells were assembled in channels of ˜300 μm width and stained with 0.5 μM Sytox green in MH2. The immobilized cells were stressed with 0.6 ng/mL lysostaphin, ˜4200 s^−1 shear rate, and 10 μg/mL oxacillin for 15 mins after a 40 min pretreatment with lysostaphin and shear alone. The lysostaphin concentration was chosen to be lower than the MIC (˜1 ng/mL).

MSSA (Sanger 476) = assay: Oxacillin MIC quoted for the flow cell experiment; format: cell-based; conditions: Staphylococcus aureus
MRSA (MW2) = assay: Oxacillin MIC quoted for the flow cell experiment; format: cell-based; conditions: Staphylococcus aureus

Compound	MIC (Staphylococcus aureus)	fluorescence compared to control MW2 cells [1]	level of fluorescence compared with the control channel ([2]; 0.7 ng/mL lysostaphin)	minimum inhibitory concentration (MIC) (strain Sanger 476)	minimum inhibitory concentration (MIC) (strain MW2)	cell death, MSSA compared with MRSA [3]	MIC (MSSA (Sanger 476))	time point at which fluorescence was increased ([2]; oxacillin 50 μg/mL with or without 0.7 ng/mL lysostaphin)	MIC (MRSA (MW2))
lysostaphin	~0.001 µg/mL	small increase	not substantially different	0.06 µg/mL	0.06 µg/mL	–	–	–	–
Cc1onc(-c2ccccc2)c1C(=O)N[C@@H]1C(=O)N2[C@@H]1SC(C)(C)[C@@H]2C(=O)O [oxacillin]	–	no substantial increase	–	–	–	More MSSA cells died during the course of the experiment than MRSA cells	0.5 µg/mL (≈ 1.25 µM)	approximately 20 min	> 16 µg/mL
